The record followed here is US6579878B1, “Pharmaceutical compositions and methods for use” (priority 2000, dated 2003).

Test [1] concerns the target muscle-type nicotinic acetylcholine receptors (Homo sapiens, UniProt P02708+P07510+Q07001). The test is described as follows: Determination of interaction with muscle receptors. In kind it is cell-based. The note with it: percentage of the maximal activation induced by (S)-(-)-nicotine. How it is done: (§1) The determination of the interaction of the compounds with muscle receptors was carried out in accordance with the techniques described in U.S. Pat. No. 5,597,919 to Dull et al. The maximal activation for individual compounds (Emax) was determined as a percentage of the maximal activation induced by (S)-(−)-nicotine. Reported Emax values represent the amount released relative to (S)-(−)-nicotine on a percentage basis. […] Such preferable compounds have the capability to activate human CNS receptors without activating muscle-type nicotinic acetylcholine receptors. Thus, there is provided a therapeutic window for utilization in the treatment of CNS disorders.

Test [2] relates to ganglia-type nicotinic acetylcholine receptors. The test is described as follows: Determination of interaction with ganglion receptors. The test is classed as cell-based. The note with it: percentage of the maximal activation induced by (S)-(-)-nicotine. As to the method:
as §1, with “ganglionic” for “muscle”, “ganglia-type” for “muscle-type”

The subject of the next test is Rat brain synaptosomes. As to the kind of experiment: Neurotransmitter release from brain synaptosomes. The note with it: in the presence of 10 uM ligand; percentage of release obtained with 10 uM (S)-(-)-nicotine or 300 uM TMA. The test is classed as biochemical. As to the method:
Neurotransmitter release was measured using techniques similar to those previously published (Bencherif M, et al.: JPET 279: 1413-1421,1996).
Rat brain synaptosomes were prepared as follows: Female Sprague Dawley rats (100-200 g) were killed by decapitation after anesthesia with 70% CO2. Brains are dissected, and hippocampus, striatum, and thalamus isolated, and homogenized in 0.32 M sucrose containing 5 mM HEPES pH 7.4 using a glass/glass homogenizer. The tissue was then centrifuged for 1000×g for 10 minutes and the pellet discarded. The supernatant was centrifuged at 12000×g for 20 minutes. The resultant pellet was re-suspended in perfusion buffer (128 mM NaCl, 1.2 mM KH2PO4, 2.4 mM KCl, 3.2 mM CaCl2, 1.2 mM MgSO4, 25 mM HEPES, 1 mM Ascorbic acid, 0.01 mM pargyline HCl and 10 mM glucose pH 7.4) and centrifuged for 15 minutes at 25000×g. The final pellet was resuspended in perfusion buffer and placed in a water bath (37° C.) for 10 minutes. […] The perfusate was collected directly into scintillation vials and released radioactivity was quantified using conventional liquid scintillation techniques. Release of neurotransmitter was determined in the presence of 10 uM of various ligands and was expressed as a percentage of release obtained with a concentration of 10 uM (S)-(−)-nicotine or 300 uM TMA resulting in maximal effects.

Structures are written as SMILES.

Sequence of muscle-type nicotinic acetylcholine receptors (P02708 21-457): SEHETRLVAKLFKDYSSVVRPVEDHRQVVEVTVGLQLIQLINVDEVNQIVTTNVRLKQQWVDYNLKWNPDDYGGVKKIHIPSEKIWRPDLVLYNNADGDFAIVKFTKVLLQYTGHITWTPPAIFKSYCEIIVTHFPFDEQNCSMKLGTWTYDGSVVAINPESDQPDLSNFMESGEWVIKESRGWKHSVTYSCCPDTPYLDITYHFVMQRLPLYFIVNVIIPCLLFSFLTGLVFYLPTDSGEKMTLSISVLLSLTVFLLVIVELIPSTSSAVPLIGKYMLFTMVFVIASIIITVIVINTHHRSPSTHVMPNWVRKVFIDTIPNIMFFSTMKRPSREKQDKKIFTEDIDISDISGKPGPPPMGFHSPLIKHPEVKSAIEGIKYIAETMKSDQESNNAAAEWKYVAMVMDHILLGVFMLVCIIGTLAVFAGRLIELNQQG
Sequence of muscle-type nicotinic acetylcholine receptors (P11230 24-501 partner): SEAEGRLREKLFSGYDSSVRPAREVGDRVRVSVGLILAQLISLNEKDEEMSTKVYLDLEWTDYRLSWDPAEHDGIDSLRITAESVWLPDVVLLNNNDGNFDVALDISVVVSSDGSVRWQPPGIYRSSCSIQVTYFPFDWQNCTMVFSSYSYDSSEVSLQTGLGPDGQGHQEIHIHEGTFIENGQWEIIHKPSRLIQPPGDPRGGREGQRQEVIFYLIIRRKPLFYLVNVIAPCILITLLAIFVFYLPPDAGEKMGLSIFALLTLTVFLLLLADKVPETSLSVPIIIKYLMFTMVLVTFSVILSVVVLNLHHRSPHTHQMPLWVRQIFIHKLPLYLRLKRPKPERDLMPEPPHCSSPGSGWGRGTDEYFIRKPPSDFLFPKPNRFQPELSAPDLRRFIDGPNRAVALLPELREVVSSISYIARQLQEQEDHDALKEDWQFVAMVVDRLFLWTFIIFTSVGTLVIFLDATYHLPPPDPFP
Sequence of muscle-type nicotinic acetylcholine receptors (Q07001 22-517): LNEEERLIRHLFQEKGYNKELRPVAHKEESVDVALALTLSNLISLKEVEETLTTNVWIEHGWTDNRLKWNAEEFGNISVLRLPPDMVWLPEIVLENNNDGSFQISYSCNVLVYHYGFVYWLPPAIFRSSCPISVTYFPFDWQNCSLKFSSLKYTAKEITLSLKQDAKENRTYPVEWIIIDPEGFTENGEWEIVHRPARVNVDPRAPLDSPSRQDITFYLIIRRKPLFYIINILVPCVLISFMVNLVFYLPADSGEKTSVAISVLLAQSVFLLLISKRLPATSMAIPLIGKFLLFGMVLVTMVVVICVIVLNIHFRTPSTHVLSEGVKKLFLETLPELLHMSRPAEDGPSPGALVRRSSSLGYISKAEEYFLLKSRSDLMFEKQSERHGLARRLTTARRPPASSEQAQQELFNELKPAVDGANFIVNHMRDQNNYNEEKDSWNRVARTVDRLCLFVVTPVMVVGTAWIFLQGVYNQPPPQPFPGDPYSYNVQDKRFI
Sequence of muscle-type nicotinic acetylcholine receptors (P07510 23-517): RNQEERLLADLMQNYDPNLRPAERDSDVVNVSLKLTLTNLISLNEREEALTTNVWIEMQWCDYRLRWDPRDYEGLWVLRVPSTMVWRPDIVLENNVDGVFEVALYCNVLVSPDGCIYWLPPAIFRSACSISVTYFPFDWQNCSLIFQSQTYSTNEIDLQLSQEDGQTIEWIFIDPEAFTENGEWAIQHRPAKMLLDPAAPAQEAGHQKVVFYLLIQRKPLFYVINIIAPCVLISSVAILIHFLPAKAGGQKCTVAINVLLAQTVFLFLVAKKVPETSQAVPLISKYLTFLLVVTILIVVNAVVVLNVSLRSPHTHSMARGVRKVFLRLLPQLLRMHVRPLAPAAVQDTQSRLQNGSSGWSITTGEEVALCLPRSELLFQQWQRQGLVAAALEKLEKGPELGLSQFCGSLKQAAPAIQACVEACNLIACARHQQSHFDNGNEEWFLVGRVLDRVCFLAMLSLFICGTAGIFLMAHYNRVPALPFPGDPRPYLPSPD

Take `c1cncc(CC2CC3CCC2N3)c1` (stereo not drawn) [Example 1, 2-((3-pyridyl)methyl)-7-azabicyclo[2.2.1]heptane]: the Emax (as a rule, the greatest response seen or fitted, relative to the assay's reference) in test [1] stood at 52%. Besides, the “Emax, maximal activation at ganglia-type receptors” value in test [2] is 48%. For the same compound, the “Emax, neurotransmitter release” value in the test with Rat brain synaptosomes amounted to 15%.
